Assay [1] has as its target T1, wild type P450cam (Pseudomonas putida, UniProt P00183). Description: Kapp (dissociation constant), substrate binding, wild-type. As to conditions: for Kd: WT, [K+] = 70 mM, phosphate buffer, pH 7.4, average of two measurements. How it is done: (§1) Binding of potential substrates was investigated by spectroscopic methods.
(§2) ^a Values are the average of two independent measurements using the
(§3) method of Sligar (S. G. Sligar, Biochemistry, 1976, 15, 5399-5406). The
(§4) value of Kapp is strongly dependent on the concentration of K^+
(§5) in the buffer. At [K^+ ] > 150 mM. Kapp for camphor is 0.6 μM
(§6) for both wildtype and Y96A. Data in this table were determined at [K^
(§7) ] = 70 mM in phosphate buffer, pH 7.4, in order to avoid salting out of
(§8) substrates at higher ion concentrations.
(§9) ^b Saturation not reached.

The target in assay [2] is T2, P-450cam mutant Y96A (Pseudomonas putida, UniProt P00183, Y97A). In words: Kapp (dissociation constant), substrate binding, Y96A. To be noted: for dissociation constants (Kapp) / affinity, in words: Y96A compared to wild-type. How it is done:
as §1, §2, §3, §4, §5, §6, §7, §8, §9

For assay [3], the target named is T1, wild type P450cam. It is filed as binding. As to conditions: wild-type.
Assay [4] has as its target T2, P-450cam mutant Y96A. The format is binding.
In assay [5] the target is T1, wild type P450cam. Description: biochemical. The format is binding. As to conditions: Wild type; 200 μM DTT, 200 μM test compound, phosphate buffer; read-out: Vs DTT (percentage displacement of DTT bound to P-450).
Assay [6] has as its target T2, P-450cam mutant Y96A. It is filed as biochemical. Further details: key: Those substrates where oxidation has been demonstrated by means of NADH turnover are marked with a + sign.
Assay [7] has as its target T2, P-450cam mutant Y96A. Description: Gas chromatography of incubation products, Y96A. To be noted: 1 mM diphenylmethane, 1 μM P-450cam, 25° C., 30 min. It is filed as biochemical. How it is done:
The mutant protein was reconstituted with putidaredoxin and putidaredoxin reductase. Diphenylmethane (5) was added and the mixture was incubated with NADH and oxygen.
A solution containing 10 μM putidaredoxin, 2 μM putidaredoxin reductase, 1 μM cytochrome P-450cam mono-oyxgenase (wild-type or mutant) and 1 mM diphenylmethane in 100 mM KC1, 20 mM KH2 PO4 pH7.4 was preincubated at 25° C. in a shaker for 5 min. The enzymatic reaction was initiated by firstly adding NADH to a total concentration of 2 mM. Further four aliquots of NADH (to increase the NADH concentration by 1 mM each time) were added in intervals of 5 min and the reaction quenched after 30 min by adding 0.5 ml chloroform. The chloroform layer was analysed by gas chromatography.
Organic extracts of the crude incubation mixture were analysed by gas chromatography. […] The other aromatic hydroxylation products, the ortho and meta isomers, had different retention times. Further confirmation of the identity of the product as structure (6) was provided by mass spectrometry, which gave the correct mass peak at 184.

For assay [8], the target named is T2, P-450cam mutant Y96A. In words: Hydroxylation of camphor, Y96A. It is filed as biochemical. As to conditions: Y96A compared to wild-type. The source says:
This decrease in selectivity can be attributed to the loss of the hydrogen bond between Y96 and camphor.

In a further assay the test system is P-450cam. As to conditions: wild-type; cited from earlier work.

SMILES strings stand for the structures.

The Kd is the equilibrium constant for the complex coming apart. Regarding `c1ccc(Cc2ccccc2)cc1` [compound 5, diphenylmethane], the Kd on wild type P450cam [1] was > 1500 µM. Besides, the “binding, in words” value at wild type P450cam [1] (wild-type) is given as “bound poorly”. In addition, at P-450cam mutant Y96A [2], the affinity, expressed as Kd, was 73 µM and the “dissociation constants (Kapp) / affinity, in words” value is reported as “greatly enhanced affinity”. For the same molecule, the “conversion of haem to high-spin form / shift in absorption spectrum, in words” value on wild type P450cam [3] was “did not give a shift in the absorption spectrum”. In addition, the “conversion of haem to high-spin form, in words” value at P-450cam mutant Y96A [4] was “partial conversion”. Further, the inhibition at 200 µM at wild type P450cam [5] stood at 5%. Also, at P-450cam mutant Y96A [6], the “NADH turnover?” value is “+”. The “new product peak by GC (para-hydroxydiphenylmethane (6))” value at P-450cam mutant Y96A [7] is given as “Only one major new peak”.

In turn, `C1CC2CCC1C2` [compound 4, norbornane] returned a Kd at wild type P450cam [1] of 330 µM. Moreover, on P-450cam mutant Y96A [2], the Kd is 92 µM and the “dissociation constants (Kapp) / affinity, in words” value was “reduced”. Further, the “conversion of haem to high-spin form / shift in absorption spectrum, in words” value on wild type P450cam [3] is reported as “fully converted the haem to the high-spin form”.

`C1C2CC3CC1CC(C2)C3` [compound 3, adamantane] had a Kd on wild type P450cam [1] of 8.4 µM. Besides, on P-450cam mutant Y96A [2], binding was characterised by a dissociation constant (Kd) of 1.4 µM and the “dissociation constants (Kapp) / affinity, in words” value is given as “reduced”. On wild type P450cam [3], the “conversion of haem to high-spin form / shift in absorption spectrum, in words” value was “fully converted the haem to the high-spin form”.

For `O=C1C2CC3CC(C2)CC1C3` [compound 2, adamantanone], at wild type P450cam [1], the Kd was 12 µM. For the same molecule, on P-450cam mutant Y96A [2], the Kd came out at 28 µM and the “dissociation constants (Kapp) / affinity, in words” value is “increased”. For the same molecule, the “conversion of haem to high-spin form / shift in absorption spectrum, in words” value at wild type P450cam [3] is recorded as “fully converted the haem to the high-spin form”. Also, the “conversion of haem to high-spin form, in words” value at P-450cam mutant Y96A [4] is “not fully converted to the high-spin form”.

On to `CC12CCC(CC1=O)C2(C)C` (stereo not shown) [compound 1, camphor], for which the figures for the Kd on wild type P450cam [1] and on P-450cam mutant Y96A [2] were 6.3 µM and 12 µM, respectively. Further, the “dissociation constants (Kapp) / affinity, in words” value at P-450cam mutant Y96A [2] is given as “increased”. In addition, the “conversion of haem to high-spin form, in words” value on P-450cam mutant Y96A [4] was “not fully converted to the high-spin form”. Also, the “hydroxylation selectivity, in words” value at P-450cam mutant Y96A [8] was “less selective”. Also, the “hydroxylation to 5-exo-hydroxycamphor, in words” value with P-450cam was “regio- and stereo-selective hydroxylation”.

(Values after patent US6100074A, “Mutant mono-oxygenase cytochrome P-450 cam” (BG plc, priority 1994, dated 2000).)
